Literature values in the PKSmart pharmacokinetics tables (Seal et al. 2025).

Columns and labels:
[1] = Lombardo et al. 2013, J Clin Pharmacol 53:178, doi 10.1177/0091270012440282; conditions: for Vd / clearance: in vivo, iv; for fraction unbound: plasma
[2] = Lombardo, Berellini, Obach 2018, Drug Metab Dispos 46:1466, doi 10.1124/dmd.118.082966; conditions: human; for MRT / Vd / clearance / half-life: in vivo, iv; for fraction unbound: plasma

SMILES	Vd ([1]; dog) [L/kg]	clearance ([1]; dog) [mL/min/kg]	fraction unbound ([1]; dog)	Vd ([1]; rat) [L/kg]	clearance ([1]; rat) [mL/min/kg]	MRT [2] [h]	Vd [2] [L/kg]	clearance [2] [mL/min/kg]	half-life [2] [h]	fraction unbound ([1]; rat)	Vd ([1]; monkey) [L/kg]	clearance ([1]; monkey) [mL/min/kg]	fraction unbound [2]	fraction unbound ([1]; monkey)
CCC(CC)O[C@@H]1C=C(C(=O)O)C[C@H](N)[C@H]1NC(C)=O	0.56	5.3	0.304	1.3	25	1.3	0.37	4.8	1.8	–	–	–	–	–
COc1cc(Cc2cnc(N)nc2N)cc(OC)c1OC	1.74	–	0.708	2.1	–	12	1.5	–	9.6	0.51	–	–	–	–
C[C@]12CC[C@@H]3c4ccc(O)cc4CC[C@H]3[C@@H]1CC[C@@H]2O	–	–	–	5.9	69	0.7	1.2	30	1.7	0.053	–	–	–	–
Cn1c(=O)c2c(ncn2C)n(C)c1=O	0.76	2.35	–	0.92	12.5	7.5	0.63	1.4	4.9	–	0.83	3.06	–	–
Cc1ccc(C(=O)c2cc(O)c(O)c([N+](=O)[O-])c2)cc1	0.16	1.9	–	0.21	8.8	1.1	0.12	1.9	1.1	–	–	–	0.0012	–
CCN(CC)CCNC(=O)c1cc(Cl)c(N)cc1OC	1.1	23.1	–	3.3	48	9.4	3.2	5.7	7.2	0.426	–	–	–	–
CSc1ccc(C(=O)c2[nH]c(=O)[nH]c2C)cc1	2.1	26	–	–	–	1.33	1.48	19.1	1.94	–	–	–	0.3	–
Nc1nc(C(=NO)C(=O)NC2C(=O)N3C(C(=O)O)=C(C=C4CCN(CC(F)(F)F)C4=O)CS[C@H]23)cs1 (stereo not given in full)	0.18	2.7	0.16	0.15	0.95	4.8	0.11	0.38	3.8	0.025	0.12	0.77	0.043	0.05
CC(C)(C)NC(=O)C1C[C@@H]2CCCC[C@@H]2CN1C[C@@H](O)[C@H](Cc1ccccc1)NC(=O)C(CC(N)=O)NC(=O)c1ccc2ccccc2n1 (stereo not given in full)	–	–	–	3	–	4.6	3.6	–	13	0.007	–	–	–	–
C[C@@H](O)C1C(=O)N2C(C(=O)O)=C(COC(N)=O)S[C@H]12 (stereo not given in full)	0.22	7.4	0.95	0.05	15.5	0.54	0.24	7.55	0.54	0.5	0.14	4.65	0.72	0.56
NC12CC3CC(CC(C3)C1)C2	–	–	–	6.4	19	23	6.6	4.8	16	0.52	–	–	–	–
CC1(C)S[C@@H]2C(NC(=O)C(C(=O)O)c3ccsc3)C(=O)N2C1C(=O)O (stereo not given in full)	0.28	4.3	–	–	–	1.5	0.16	1.8	1	–	–	–	0.55	–
CO[C@@]1(NC(=O)CSCC#N)C(=O)N2C(C(=O)O)=C(CSc3nnnn3C)CS[C@@H]21	0.9	8	0.75	0.35	25.3	1.5	0.13	1.5	1.5	0.55	0.3	3.3	0.15	0.34
CC(C)N(CCC(C(N)=O)(c1ccccc1)c1ccccn1)C(C)C (stereo not given)	1.27	9.87	–	–	34	9.6	0.52	0.9	7	–	–	–	0.16	–
COC(=O)C1=C(C)NC(C)=C(C(=O)OCCN(C)Cc2ccccc2)C1c1cccc([N+](=O)[O-])c1 (stereo not given)	2.39	–	0.062	1.9	–	1.5	1	–	4.1	0.084	1.23	–	–	0.06
CC(=O)CCCCn1c(=O)c2c(ncn2C)n(C)c1=O	1.01	37	0.425	0.1	7.28	0.77	1.8	39	1.2	0.76	–	–	0.51	–
CCCC1O[C@@H]2C[C@H]3[C@@H]4CC=C5CC(=O)C=C[C@]5(C)[C@H]4[C@@H](O)C[C@]3(C)[C@]2(C(=O)CO)O1 (stereo not given in full)	–	–	–	29.2	72	3.2	3.9	20	2.8	0.039	–	–	–	–
CC(C)(C)NC(=O)C1CN(Cc2cccnc2)CCN1C[C@@H](O)CC(Cc1ccccc1)C(=O)N[C@H]1c2ccccc2C[C@H]1O (stereo not given in full)	0.73	15	–	2.2	89	0.76	0.82	–	1	–	1.45	35.7	–	–
Cc1ncc2n1-c1ccc(Cl)cc1C(c1ccccc1F)=NC2	1.1	35.2	0.0223	2.6	90	3.5	1.1	5.3	3.1	0.04	3	22.3	–	0.146

SMILES	Vd ([1]; dog) [L/kg]	clearance ([1]; dog) [mL/min/kg]	fraction unbound ([1]; dog)	Vd ([1]; rat) [L/kg]	clearance ([1]; rat) [mL/min/kg]	MRT [2] [h]	Vd [2] [L/kg]	clearance [2] [mL/min/kg]	half-life [2] [h]	fraction unbound ([1]; rat)	Vd ([1]; monkey) [L/kg]	clearance ([1]; monkey) [mL/min/kg]	fraction unbound [2]	fraction unbound ([1]; monkey)
CON=C(C(=O)NC1C(=O)N2C(C(=O)O)=C(COC(C)=O)CS[C@H]12)c1csc(N)n1 (stereo not given in full)	0.5	8.13	–	–	–	1.2	0.19	2.7	1.2	0.59	–	–	0.6	–
COC(=O)C1=C(C)NC(C)=C(C(=O)OC)C1c1ccccc1[N+](=O)[O-]	1.15	–	–	0.27	–	–	–	–	1.9	0.035	–	–	–	–
C[C@H](Cn1cnc2c(N)ncnc21)OCP(=O)(O)O	0.9	5.9	–	–	–	3.8	0.83	3.1	5.8	–	–	16.2	0.93	–
COCC(=O)O[C@]1(CCN(C)CCCc2nc3ccccc3[nH]2)CCc2cc(F)ccc2[C@@H]1C(C)C	9.7	18.4	–	–	94	13	3.1	4	13	–	–	–	0.005	–
CO[C@]12CC[C@@]3(C[C@@H]1[C@](C)(O)C(C)(C)C)[C@H]1Cc4ccc(O)c5c4[C@@]3(CCN1CC1CC1)[C@H]2O5	–	–	–	8.37	0.05	–	–	–	3.2	–	–	–	–	–
C#C[C@]1(O)CC[C@H]2[C@@H]3CCc4cc(OS(=O)(=O)O)ccc4[C@H]3CC[C@@]21C	–	–	–	–	–	8.2	2.3	4.7	8.4	–	21	39	0.011	–
O=[N+]([O-])O[C@H]1CO[C@H]2[C@@H]1OC[C@H]2O[N+](=O)[O-]	3	180	–	2.6	122	1	1.9	31	1.7	–	1.7	58.8	0.72	–
CC(=O)CC(c1ccccc1)c1c(O)c2ccccc2oc1=O (stereo not given)	0.28	0.3	–	0.24	0.17	39	0.13	–	–	0.405	–	–	–	–
C[C@]12C=CC(=O)C=C1CC[C@@H]1[C@@H]2[C@@H](O)C[C@@]2(C)[C@H]1CC[C@]2(O)C(=O)CO	–	–	–	1.74	98.7	–	–	–	–	0.32	–	–	0.25	–
COc1cc(NS(C)(=O)=O)ccc1Nc1c2ccccc2nc2ccccc12	2.8	16	0.081	4.5	83	6.2	1.6	4.3	4.7	0.1	–	–	0.029	–
CO[C@@]1(NC(=O)C(C(=O)O)c2ccc(O)cc2)C(=O)N2C(C(=O)O)=C(CSc3nnnn3C)CO[C@@H]21 (stereo not given in full)	0.2	2.2	0.66	0.25	9.1	3.9	0.17	0.72	2.9	1	0.19	2.3	0.39	1
CCCC(=O)OCOC(=O)C1=C(C)NC(C)=C(C(=O)OC)C1c1cccc(Cl)c1Cl (stereo not given)	0.21	–	–	0.44	–	0.07	0.58	–	0.3	–	–	–	–	–
O=c1c(O)c(-c2ccc(O)c(O)c2)oc2cc(O)cc(O)c12	–	–	–	0.28	116	0.2	0.12	11	0.6	–	–	–	0.009	–
CC1=NC(=O)[C@](CCN(C(C)C)C(C)C)(c2ccccc2)[C@H]2CCCCN12	1.3	12	0.618	4.2	48	1.58	0.58	6.79	1.89	0.63	1.6	20	0.7	0.656
Cc1cn([C@H]2C[C@H](N=[N+]=[N-])[C@@H](CO)O2)c(=O)[nH]c1=O	1	14	0.827	–	–	1.2	1.8	–	1.3	–	–	–	0.8	–
CNCCCN1c2ccccc2CCc2ccccc21	–	–	–	19.8	–	23	15	–	22	–	–	–	–	–
O=C1c2c(O)ccc(O)c2C(=O)c2c(NCCNCCO)ccc(NCCNCCO)c21	26.6	10	–	–	–	25	12	7.9	53	–	–	–	0.25	–
Cc1cccc(C)c1NC(=O)C(C)N (stereo not given)	–	–	–	5	37.8	14	1.8	2.2	12	–	–	–	–	–
CCC1(c2cccc(O)c2)CCCCN(C)C1 (stereo not given)	–	–	–	4.4	58.4	2	3.3	28	1.7	–	–	–	0.73	–

SMILES	Vd ([1]; dog) [L/kg]	clearance ([1]; dog) [mL/min/kg]	fraction unbound ([1]; dog)	Vd ([1]; rat) [L/kg]	clearance ([1]; rat) [mL/min/kg]	MRT [2] [h]	Vd [2] [L/kg]	clearance [2] [mL/min/kg]	half-life [2] [h]	fraction unbound ([1]; rat)	Vd ([1]; monkey) [L/kg]	clearance ([1]; monkey) [mL/min/kg]	fraction unbound [2]	fraction unbound ([1]; monkey)
COC(=O)C(c1ccccc1)C1CCCCN1 (stereo not given)	–	–	–	3	53	4.5	2.2	9.42	4.8	–	–	–	0.85	–
CC1(C)S[C@@H]2C(NC(=O)C(NC(=O)N3CCN(S(C)(=O)=O)C3=O)c3ccccc3)C(=O)N2C1C(=O)O (stereo not given in full)	–	–	–	0.3	50	0.71	0.09	2.1	1.2	0.65	–	–	0.7	–
CCOc1ccc(NC(C)=O)cc1	0.89	15.7	–	–	–	1.1	1.4	–	0.92	–	–	–	0.47	–
CC(c1ncncc1F)[C@](O)(Cn1cncn1)c1ccc(F)cc1F (stereo not given in full)	0.88	–	0.49	1.78	–	4.4	2.2	–	5.6	0.44	–	–	0.42	–
CCCN(CCC)S(=O)(=O)c1ccc(C(=O)O)cc1	0.46	0.34	0.15	–	–	8.7	0.13	0.25	5.9	–	–	–	–	–
NCC1(CC(=O)O)CCCCC1	0.16	2.3	–	1.1	9.1	7	0.71	1.7	5.3	0.02	0.65	2.3	–	0.02
CCOc1ccccc1OCCN[C@H](C)Cc1ccc(OC)c(S(N)(=O)=O)c1	1.74	19.3	0.1	3.25	82.2	5.6	0.21	0.62	6.8	0.24	–	–	–	–
O=C(CCCN1CCC(O)(c2ccc(Cl)cc2)CC1)c1ccc(F)cc1	37	–	–	10.4	–	36	17	–	35	0.24	3.7	–	–	–
CCN(CC)CCNC(=O)c1ccc(NS(C)(=O)=O)cc1	1.4	9	–	2.08	25.6	3.7	0.82	3.7	3.8	–	–	–	–	–
CN[C@@H](C)Cc1ccccc1	–	–	–	9	126	16	4.3	4.4	12	0.92	–	–	0.85	–
Cn1nnnc1SCC1=C(C(=O)O)N2C(=O)C(NC(=O)C(O)c3ccccc3)[C@H]2SC1 (stereo not given in full)	–	–	–	0.25	21.8	0.75	0.16	3.6	0.75	–	–	–	0.25	–
CCCCS(=O)(=O)NC(Cc1ccc(OCCCCC2CCNCC2)cc1)C(=O)O (stereo not given)	0.52	36.4	0.55	1.42	–	1.8	0.34	3	1.6	0.15	–	–	0.36	–
CNCC[C@@H](Oc1ccccc1C)c1ccccc1	–	–	–	4.3	36	1.5	0.85	9.3	5.2	0.11	–	–	–	–
CC(CC(c1ccccc1)c1ccccc1)NC(C)(C)C (stereo not given)	–	41	0.14	–	–	81	5.1	1.1	56	–	–	–	–	–
CO[C@@]1(NC(=O)Cc2cccs2)C(=O)N2C(C(=O)O)=C(COC(N)=O)CS[C@@H]21	0.6	11	–	–	–	0.79	0.17	3.6	0.81	–	–	–	0.73	–
O=c1[nH]cc(F)c(=O)[nH]1	–	–	–	0.25	33	–	–	–	–	0.69	–	–	0.64	–
CN1CCC[C@H]1c1cccnc1	3.3	42	–	2.77	46.3	2.4	2.6	18	2	–	–	–	–	–
COc1ccc2c3c1OC1C(=O)CC[C@@]4(O)[C@@H](C2)N(C)CC[C@]314 (stereo not given in full)	–	–	–	–	–	–	–	–	–	0.87	–	–	0.55	–
